According to US20230126447A1, “OCULAR DRUG DEPOT FOR COMPLEMENT-MEDIATED DISORDERS” (priority 2020, published 2023):
Where “and” joins values, the source holds several entries; their conditions need not be identical. Identical values can stand only once. Like-named read-outs stand apart in the source and are kept apart here.

Tests used:
[1] = Phase 1 single ascending dose plasma pharmacokinetics in healthy volunteers; format: in vivo, human
Procedure: This study was conducted in healthy human volunteers in a randomized, double-blind design. Compound 1 or placebo was administered as a single oral dose to twenty-eight healthy volunteers in three separate dose groups. […] Pharmacokinetic data from each volunteer is summarized in Table 29, and plasma concentration data is shown graphically in FIG. 19.

[2] = Ocular tissue and plasma pharmacokinetics, 15 mg/kg oral, New Zealand White rabbits (Example 3/5); format: in vivo
Procedure: Study design including group designation and dose levels are outlined in Table 4. […] Fifteen Dutch Belted and 5 New Zealand White rabbits were used as un-dosed controls. […] The dose volume was 5 mL/kg/dose for all groups. Safety was assessed with toxicological and ophthalmic examinations including slit lamp biomicroscopy, indirect ophthalmoscopy, rebound tonometry, and ultrasonic corneal pachymetry.
Analyst® software (Version 1.6.2) was used to capture the LC-MS/MS data and integrate the peak areas. Calibration standards and QCs were prepared in a blank solution of 75%:25% acetonitrile:water (v:v), ranging from 10 ng/mL to 10,000 ng/mL. Matrix matched standard and QC samples were prepared by mixing 2 μL of standard or QC sample above with 18 μL of appropriate ocular tissue or plasma. The final calibration standards ranged from 1 ng/mL to 1000 ng/mL. All plasma, retina, choroid-RPE, optic nerve, and vitreous humor samples were analyzed in a single run. Iris-ciliary body samples were analyzed in two runs due to a need for sample dilution. […] Dilution QCs were prepared at 5000 ng/mL where appropriate. Two sets of standards were used to bracket the analytical run at the beginning and end of the run. Three sets of QCs were included the analytical runs. All concentrations in ocular matrices are reported as ng/g based on the assumed density of 1 g/mL.
1, 6, 24, 96, 168, and 240 hours post-dose on Day 15, with the eyes collected at the same time as blood sampling. A single blood sample was taken from Groups 4 and 5 at sacrifice. Plasma, vitreous humor (VH), retina, choroid-retina pigmented epithelium (Choroid-RPE), optic nerve (ON), and iris-ciliary body (I-CB) were analyzed by LC-MS/MS to quantify test article concentrations. The lower limit of quantitation (LLOQ) in plasma and vitreous humor was 1.0 ng/mL. The LLOQ was 6.0 ng/g in retina, Choroid-RPE, and I-CB and the optic nerve LLOQ was 15 ng/g, assuming tissue density of 1 g/mL where relevant.
Study design including group designation and dose levels are outlined in Table 18.

[3] = Ocular tissue and plasma pharmacokinetics, 50 mg/kg BID oral, New Zealand White rabbits (Example 4); format: in vivo; details: one-hour post-dose on Day 15
Procedure: Study design, including group designation and dose levels, are outlined in Table 15. […] Two Dutch Belted rabbits received vehicle only oral gavage doses for tolerability assessment. […] The dose volume was 5 mL/kg/dose for all groups. Safety was assessed with toxicological and ophthalmic examinations, including slit lamp biomicroscopy, indirect ophthalmoscopy, rebound tonometry, and ultrasonic corneal pachymetry. […] Plasma, vitreous humor (VH), retina, choroid-retina pigmented epithelium (Choroid-RPE), optic nerve (ON), and iris-ciliary body (I-CB) were analyzed by LC-MS/MS to quantify test article concentrations. The lower limit of quantitation (LLOQ) in plasma and vitreous humor was 1.0 ng/mL.

[4] = Group 1, 200 mg single oral dose, individual subjects
[5] = Group 2, 600 mg single oral dose, individual subjects
[6] = Group 3, 1200 mg single oral dose, individual subjects

In the case of `CC(=O)c1nn(CC(=O)N2C[C@H](F)C[C@H]2C(=O)Nc2cccc(Br)n2)c2ccc(-c3cnc(C)nc3)cc12` [Compound 1, (2S,4R)-1-(2-(3-Acetyl-5-(2-methylpyrimidin-5-yl)-1H-indazol-1-yl)acetyl)-N-(6-bromopyridin-2-yl)-4-fluoropyrrolidine-2-carboxamide], the “AUC(0-24)” value [1, 4] is reported as 3387.20 ng·h/mL and 4128.01 ng·h/mL and 2339.30 ng·h/mL and 3615.79 ng·h/mL and 1888.95 ng·h/mL and 2229.07 ng·h/mL, the “AUC(0-∞)” value [1, 4] is reported as 3616.53 ng·h/mL and 4241.37 ng·h/mL and 2569.69 ng·h/mL and 3822.48 ng·h/mL and 1993.07 ng·h/mL and 2385.64 ng·h/mL and the Cmax [1, 4] is reported as 950 ng/mL and 2060 ng/mL and 764 ng/mL and 1380 ng/mL and 635 ng/mL and 562 ng/mL. For the same compound, the Tmax [1, 4] was 1.25 h, the “AUC(0-24)” value [1, 5] was 6591.55 ng·h/mL and 6135.83 ng·h/mL and 6020.33 ng·h/mL and 4079.30 ng·h/mL and 7288.50 ng·h/mL and the “AUC(0-∞)” value [1, 5] was 6805.91 ng·h/mL and 7335.98 ng·h/mL and 6903.06 ng·h/mL and 4687.40 ng·h/mL and 8671.53 ng·h/mL. The Cmax [1, 5] was 2480 ng/mL and 2100 ng/mL and 1380 ng/mL and 1810 ng/mL, the Tmax [1, 5] was 2.00 h and 1.25 h and the “AUC(0-24)” value [1, 6] was 11822.00 ng·h/mL and 10219.40 ng·h/mL and 8431.90 ng·h/mL and 11357.50 ng·h/mL and 14054.00 ng·h/mL. The “AUC(0-∞)” value [1, 6] was 13297.29 ng·h/mL and 10982.71 ng·h/mL and 10243.93 ng·h/mL and 13190.18 ng·h/mL and 15424.93 ng·h/mL, the Cmax [1, 6] was 3080 ng/mL and 3230 ng/mL and 3530 ng/mL and 1940 ng/mL and 2530 ng/mL and 4100 ng/mL and the AUC(0-t) ([1]; human, po, 200 mg, Group 1, 200 mg single oral dose, Mean (N 6), read-out: AUC(0-24)) was 2930 ng·h/mL. It also gave an AUC(0-inf) ([1]; human, po, 200 mg, Group 1, 200 mg single oral dose, Mean (N 6), read-out: AUC(0-∞)) of 3100 ng·h/mL, a Cmax ([1]; human, po, 200 mg, Group 1, 200 mg single oral dose, Mean (N 6), read-out: Cmax) of 1060 ng/mL and a Tmax ([1]; human, po, 200 mg, Group 1, 200 mg single oral dose, Mean (N 6), read-out: Tmax) of 1.79 h. For the same compound, the Tmax ([1]; human, po, 200 mg, Group 1, 200 mg single oral dose, individual subjects, read-out: Tmax) was 1.5 h, the AUC(0-t) ([1]; human, po, 200 mg, Group 1, 200 mg single oral dose, read-out: Mean AUC(0-24)) was 2390 ng·h/mL and the AUC(0-inf) ([1]; human, po, 200 mg, Group 1, 200 mg single oral dose, read-out: Mean AUC(0-∞)) was 3020 ng·h/mL. It also gave a Cmax ([1]; human, po, 200 mg, Group 1, 200 mg single oral dose, read-out: Mean Cmax) of 1060 ng/mL, an AUC(0-t) ([1]; human, po, 600 mg, Group 2, 600 mg single oral dose, Mean (N 6), read-out: AUC(0-24)) of 6190 ng·h/mL and an AUC(0-inf) ([1]; human, po, 600 mg, Group 2, 600 mg single oral dose, Mean (N 6), read-out: AUC(0-∞)) of 7090 ng·h/mL. The Cmax ([1]; human, po, 600 mg, Group 2, 600 mg single oral dose, Mean (N 6), read-out: Cmax) was 2020 ng/mL, the Tmax ([1]; human, po, 600 mg, Group 2, 600 mg single oral dose, Mean (N 6), read-out: Tmax) was 1.63 h and the AUC(0-t) ([1]; human, po, 600 mg, Group 2, 600 mg single oral dose, individual subjects, read-out: AUC(0-24)) was 7020 ng·h/mL. It also gave an AUC(0-inf) ([1]; human, po, 600 mg, Group 2, 600 mg single oral dose, individual subjects, read-out: AUC(0-∞)) of 8160 ng·h/mL, a Cmax ([1]; human, po, 600 mg, Group 2, 600 mg single oral dose, individual subjects, read-out: Cmax) of 2180 ng/mL and an AUC(0-t) ([1]; human, po, 600 mg, Group 2, 600 mg single oral dose, read-out: Mean AUC(0-24)) of 6190 ng·h/mL. It also gave an AUC(0-inf) ([1]; human, po, 600 mg, Group 2, 600 mg single oral dose, read-out: Mean AUC(0-∞)) of 7090 ng·h/mL, a Cmax ([1]; human, po, 600 mg, Group 2, 600 mg single oral dose, read-out: Mean Cmax) of 2020 ng/mL and an AUC(0-t) ([1]; human, po, 1200 mg, Group 3, 1200 mg single oral dose, Mean (N 6), read-out: AUC(0-24)) of 11400 ng·h/mL. The AUC(0-inf) ([1]; human, po, 1200 mg, Group 3, 1200 mg single oral dose, Mean (N 6), read-out: AUC(0-∞)) was 13200 ng·h/mL, the Cmax ([1]; human, po, 1200 mg, Group 3, 1200 mg single oral dose, Mean (N 6), read-out: Cmax) was 3070 ng/mL and the Tmax ([1]; human, po, 1200 mg, Group 3, 1200 mg single oral dose, Mean (N 6), read-out: Tmax) was 2.5 h. For the same compound, the AUC(0-t) ([1]; human, po, 1200 mg, Group 3, 1200 mg single oral dose, individual subjects, read-out: AUC(0-24)) was 12700 ng·h/mL, the AUC(0-inf) ([1]; human, po, 1200 mg, Group 3, 1200 mg single oral dose, individual subjects, read-out: AUC(0-∞)) was 15800 ng·h/mL and the Tmax ([1]; human, po, 1200 mg, Group 3, 1200 mg single oral dose, individual subjects, read-out: Tmax) was 2.5 h. It also gave an AUC(0-t) ([1]; human, po, 1200 mg, Group 3, 1200 mg single oral dose, read-out: Mean AUC(0-24)) of 11400 ng·h/mL, an AUC(0-inf) ([1]; human, po, 1200 mg, Group 3, 1200 mg single oral dose, read-out: Mean AUC(0-∞)) of 13200 ng·h/mL and a Cmax ([1]; human, po, 1200 mg, Group 3, 1200 mg single oral dose, read-out: Mean Cmax) of 3070 ng/mL. The “Mean Vitreous Humor concentration” value ([2]; NZW rabbit, 15 mg/kg single oral dose, Day 1, 240 h) was “BLQ^a”, the “Mean retina concentration” value ([2]; NZW rabbits, Day 1, 15 mg/kg single dose, 96 hr) was “BLQ” and the concentration at 0 h ([2]; New Zealand White, aqueous humor, NZW rabbit, 15 mg/kg single oral dose, Day 1, 0 h) was 6.14 ng/mL. For the same compound, the concentration at 1 h ([2]; New Zealand White, iris-ciliary body, NZW rabbit, 15 mg/kg single oral dose, Day 1, 1 h) was 117 ng/g, the MRT last ([2]; New Zealand White, po, Vitreous Humor, NZW rabbit, 15 mg/kg single dose, Day 1) was 2.24 h and the Cmax ([2]; New Zealand White, po, retina, NZW rabbit, 15 mg/kg single dose, Day 1) was 200 ng/g. For the same compound, the Tlast ([2]; Vitreous Humor, NZW rabbit, 15 mg/kg single dose, Day 1) was 6 h, the AUClast ([2]; plasma, NZW rabbit, 15 mg/kg single dose, Day 1) was 1430 ng·h/mL and the “Choroid-RPE tissue exposure in NZW versus DB rabbit” value [3] was “approximately five-fold lower”.
